# Legend:
# Type in all cases: cell-based, human
# [1] = system: A431 cells; assay: Intracellular ATP assay (CellTiter-Glo 2.0)
# Method: (§1) CellTiter-Glo® 2.0 assay kits (Promega Corporation), a luminescence based assay quantitating the amount of ATP present in cells, were used to determine intracellular ATP levels in cultures of A431 and MM649 exposed to two concentrations (300 μM and 500 μM) of Compound 1. Again, cells were plated at a density of 10,000 cells per well into a clear bottomed black 96-well plates (in 100 μl of complete medium) and incubated at 37° C., 5% CO2 overnight. At the time of assay, media was aspirated from each well and 50 μl of fresh medium was inserted. Stock solutions of Compound 1 were diluted to 2× final assay concentrations (1 mM and 600 μM) and 50 μl of these dilutions added to the required wells. Ethanol only control solutions were also compiled and administered. At the indicated time points, media was gently removed making sure not to disturb the cells and 100 μl of CellTiter-Glo® 2.0 Reagent added. The resultant plate was mixed on an orbital shaker for 2 mins to induce cell lysis after which it was incubated in the dark for 10 mins. Following this, the luminescent signal in each well was determined. Luminescent signals from compound treated wells were normalised to Vehicle treated wells and expressed as % intracellular ATP vs. time.
# [2] = system: MM649 cells; assay: Intracellular ATP assay (CellTiter-Glo 2.0)
# Method: as §1
# [3] = system: A431 cells; assay: ATP release assay; conditions: both concentrations (500 and 300 μM), within 60 minutes
# Method: (§2) A431 (human epidermoid carcinoma), MM649 (human melanoma) and B16-OVA (B16-F10 mouse melanoma cell line stably transfected with chicken ovalbumin) were cultured in RPMI-1640, 10% FCS (complete medium) at 37° C., 5% CO2 in a humidified incubator. BMDCs were cultured in R10 media (RPMI, 10% FCS, 2 mM glutamine, 50 μM beta-mercaptoethanol, Pen/Strep). All cell lines used in this study were confirmed as mycoplasma negative using MycoAlert (Lonza). STR profiling was also performed to confirm the identity of the human cell lines used.
# (§3) Cell lines were plated at a density of 10,000 cells per well into clear 96-well plates (Corning, #3595; 100 μl of complete media) and the resultant plates incubated overnight as previously detailed. The following day, media was aspirated from each well and 50 μl of fresh medium was inserted. Stock solutions of Compounds 1, 2, 3 and 4 were diluted to 2× final assay concentration (1 mM and 600 μM) and 50 μl of these dilutions added to the required wells. Ethanol only control solutions were also compiled and administered. At the indicated timepoints, 80 μl of media was removed, centrifuged at 1,200 rpm for 4 mins to pellet cell debris and 50 μl assayed for ATP using a bioluminescence based ATP assay kit (FLAA, Sigma-Aldrich). Relative luminescence units were recorded for each sample using a Hybrid Synergy H4 plate reader (BioTek).
# [4] = system: MM649 cells; assay: ATP release assay; conditions: both concentrations (500 and 300 μM), within 60 minutes
# Method: as §2, §3
smiles,measurement,setting,value
"C/C=C(\C)C(=O)O[C@@H]1[C@@H](C)[C@@]2(O)[C@H]([C@@H]3C(C)(C)[C@]13OC(=O)[C@@H](C)CC)[C@@H]1O[C@]1(CO)[C@@H](O)[C@]1(O)C(=O)C(C)=C[C@H]12 [Compound 1, 12-tigloyl-13-(2-methylbutanoyl)-6,7-epoxy-4,5,9,12,13,20-hexahydroxy-1-tiglien-3-one]",intracellular ATP,"[1]; 300 μM, after 120 minutes",approximately 50 % of the pre-treatment level
same,intracellular ATP levels,"[1]; 500 μM, after 60 minutes",almost undetectable
same,intracellular ATP,"[2]; 300 μM, after 120 minutes",approximately 50 % of the pre-treatment level
same,intracellular ATP levels,"[2]; 500 μM, after 60 minutes",almost undetectable
same,ATP release,[3],significant release of ATP
same,ATP release,[4],significant release of ATP

# Reference: patent publication US11213506B2, “Combination therapy for the treatment or prevention of tumours” (QBIOTICS PTY LTD, priority 2017, dated 2022)
